Assay results: publication PMC2978498 (Angewandte Chemie (International ed. in English), 2009)
No end group written: not given here.

T1: Dvl PDZ domain (Dvl1 PDZ) (Mus musculus, UniProt P51141)
T1 sequence (P51141 248-337): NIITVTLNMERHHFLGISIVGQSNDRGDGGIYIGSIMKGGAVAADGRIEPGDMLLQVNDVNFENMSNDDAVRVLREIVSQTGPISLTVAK

T2: Dapper C-terminal peptide (Rox-DprC) (Xenopus laevis)
T2 chain: Rox-SGSLKLMTTV


How the values were obtained:
[1] = molecular target: T1, Dvl PDZ domain (Dvl1 PDZ); test: binding test shown only in supplement
[2] = molecular target: T1, Dvl PDZ domain (Dvl1 PDZ); test: fluorescence polarization competition with Rox-DprC peptide; format: binding
[3] = molecular target: T2, Dapper C-terminal peptide (Rox-DprC); test: fluorescence polarization

| Molecule | Ki [2] | other results |
| --- | --- | --- |
| CSc1ccc(/C=C2/C(C)=C(CC(=O)O)c3cc(F)ccc32)cc1 [sulindac sulfide] |  | binding test shown only in supplement [1]: binds to the PDZ domain with much weaker affinity (Figure S6) |
| Dishevelled PDZ domain (Dvl1) PDZ (protein) NIITVTLNMERHHFLGISIVGQSNDRGDGGIYIGSIMKGGAVAADGRIEPGDMLLQVNDVNFENMSNDDAVRVLREIVS |  | Kd [3]: ~8 µM |

Further lines, with some results ahead:

| Ki [2] | Molecule | other results |
| --- | --- | --- |
| 10.7 ± 1.2 µM | CC1=C(CC(=O)O)c2cc(F)ccc2/C1=C\c1ccc([S@@+](C)[O-])cc1 [sulindac] |  |
| 8 ± 0.2 µM | CC1=C(CC(=O)O)c2cc(F)ccc2/C1=C\c1ccc(S(C)(=O)=O)cc1 [sulindac sulfone] |  |
